# In patent US20070031872A1, “A141S and G399S mutation in the Omi/HtrA2 protein in Parkinson's disease” (priority 2004, published 2007):
# Peptide text beside a SMILES is read from it. * marks the point of attachment. Cbz = O=C(OCc1ccccc1)*
# What was measured:
# Type in all cases: cell-based
# [1] = tested on: HEK293 cells which expressed the exon 1, i.e. G421T, mutation (A141S) of Omi/HtrA2; assay: Cytotoxicity test (LDH release) using MG132; settings: 3.0 μM MG132, 24 hours; A141S cells vs wild-type HEK293 cells; FIG. 8
# Method: (§1) In order to analyze the pathogenetic relevance of the two mutations found in the Omi/HtrA2 gene, the cytotoxicity test was used to investigate whether cells which express the correspondingly genetically modified Omi/HtrA2 protein are more sensitive to cytotoxins, i.e. undergo apoptosis more frequently with corresponding exposure.
# (§2) This test was carried out using the cytotoxicity detection kit (LDH) supplied by Roche. The measure of apoptosis used in this case is the lactate dehydrogenase (LDH) released from the cytosol of the apoptotic cells into the surrounding medium after contact with the toxins. This LDH in turn is determined via conversion of a tetrazolium salt into formazan, which can be measured through a change in color from yellow (tetrazolium salt) to red (formazan) using an ELISA reader at a wavelength of 490 nm. The absorption at 650 nm is measured as reference comparison. […]
# (§3) In order to detect the total amount of LDH, which is related to the total number of cells per well, then 50 μl of 10% Triton X-100 solution were pipetted into each well in order to lyse the cells which were still alive. […] 100 μl of LDH assay medium were then put in each well to be measured of the 96-well plate and incubated at room temperature for 20 minutes.
# (§4) After this incubation time had elapsed, the reaction was stopped by adding 50 μl of 1 N HCl (Sigma) and measured using the ELISA reader. […]
# [2] = tested on: SH-SY5Y cells which stably express mutated (S141 or S399) Omi/HtrA2; assay: Mitochondrion function test: mitochondrial membrane potential by JC-1 FACS analysis; settings: 0.5 μM staurosporin, 4 hours, FIG. 9
# Method: The mitochondrial membrane potential was measured by FACS analysis (flow cytometer) using JC-1, as marker of mitochondrial homeostasis in SH-SY5Y cells which stably express the wild-type or mutated (S141 or S399) Omi/HtrA2.
# JC-1 is a green fluorescent dye which can be employed to measure the mitochondrial membrane potential. It has the property of diffusing through cellular membranes and is moreover in the form of a monomer which fluoresces green on excitation with a 488 nm laser. In intact mitochondria there is accumulation of the dye owing to the mitochondrial membrane potential, and thus JC-1 aggregates form. The aggregate now re-emits in a red fluorescent wavelength the excitation light and can thus be clearly distinguished both under a microscope and in a flow cytometer from the green fluorescent monomers. […]
# In order to differentiate the cell population between green and red fluorescence and to make the adjustment in the flow cytometer, cells without JC-1, with JC-1 and cells with JC-1 treated with CCCP were used. […] It was thus possible after the staining readily to excite only the green fluorescence of the JC-1 monomers, owing to treatment with CCCP. After adjustment of the assay in the flow cytometer, the samples were then measured and evaluated. […]
# [3] = tested on: HEK293 cells which expressed the exon 7, i.e. the G1195A, mutation (G399S) of Omi/HtrA2; assay: Cytotoxicity test (LDH release) using staurosporin; settings: 0.5 μM staurosporin, 6 hours; G399S cells vs wild-type HEK293 cells; FIG. 7
# Method: as §1, §2, §3, §4
SMILES,"sensitivity to MG132 relative to wild-type HEK293 cells (LDH release, proportion of dead cells) [1]",decline in the mitochondrial membrane potential (ΔΨm loss) compared with wild-type cells ([2]; Omi/HtrA2 S141 cells),decline in the mitochondrial membrane potential (ΔΨm loss) compared with wild-type cells ([2]; Omi/HtrA2 S399 cells),"sensitivity to staurosporin relative to wild-type HEK293 cells (LDH release, proportion of dead cells) [3]"
CC(C)C[C@@H](C=O)NC(=O)[C@H](CC(C)C)NC(=O)[C@H](CC(C)C)NC(=O)OCc1ccccc1 [MG132] (Cbz-Leu-Leu-Leu-aldehyde),approximately 1.4 times,–,–,–
CN[C@@H]1C[C@H]2O[C@@](C)([C@@H]1OC)n1c3ccccc3c3c4c(c5c6ccccc6n2c5c31)C(=O)NC4 [staurosporin],–,distinct decline in the mitochondrial membrane potential,distinct decline in the mitochondrial membrane potential,more than five times more sensitive
